# Laboratory results as given in ChEMBL document CHEMBL1135940, “2-Amino-4-[3'-hydroxyphenyl]-4-hydroxybutanoic acid; a potent inhibitor of rat and recombinant human kynureninase” (Bioorg Med Chem Lett, 2002).
# How the values were obtained:
# Kynureninase [1] = biological target: T1, Kynureninase (Rattus norvegicus, UniProt P70712); test: Tested for binding affinity against kynureninase enzyme from rat
# T1 sequence (P70712 whole entry): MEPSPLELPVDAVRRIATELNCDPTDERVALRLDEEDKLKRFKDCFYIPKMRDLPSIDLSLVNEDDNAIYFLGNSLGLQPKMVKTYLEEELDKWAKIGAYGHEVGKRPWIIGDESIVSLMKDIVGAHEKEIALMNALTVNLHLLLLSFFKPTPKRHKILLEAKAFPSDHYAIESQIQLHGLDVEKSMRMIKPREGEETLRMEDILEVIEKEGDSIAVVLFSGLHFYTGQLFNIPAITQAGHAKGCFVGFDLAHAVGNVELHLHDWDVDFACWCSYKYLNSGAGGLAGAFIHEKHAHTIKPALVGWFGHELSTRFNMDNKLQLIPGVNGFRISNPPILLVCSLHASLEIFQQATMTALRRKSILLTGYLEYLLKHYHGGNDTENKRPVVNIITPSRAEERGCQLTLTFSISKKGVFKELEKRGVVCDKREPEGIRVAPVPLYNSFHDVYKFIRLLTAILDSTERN
# Kynureninase [2] = biological target: T2, Kynureninase (Homo sapiens, UniProt Q16719); test: Tested for binding affinity against kynureninase enzyme from human
# T2 sequence (Q16719 whole entry): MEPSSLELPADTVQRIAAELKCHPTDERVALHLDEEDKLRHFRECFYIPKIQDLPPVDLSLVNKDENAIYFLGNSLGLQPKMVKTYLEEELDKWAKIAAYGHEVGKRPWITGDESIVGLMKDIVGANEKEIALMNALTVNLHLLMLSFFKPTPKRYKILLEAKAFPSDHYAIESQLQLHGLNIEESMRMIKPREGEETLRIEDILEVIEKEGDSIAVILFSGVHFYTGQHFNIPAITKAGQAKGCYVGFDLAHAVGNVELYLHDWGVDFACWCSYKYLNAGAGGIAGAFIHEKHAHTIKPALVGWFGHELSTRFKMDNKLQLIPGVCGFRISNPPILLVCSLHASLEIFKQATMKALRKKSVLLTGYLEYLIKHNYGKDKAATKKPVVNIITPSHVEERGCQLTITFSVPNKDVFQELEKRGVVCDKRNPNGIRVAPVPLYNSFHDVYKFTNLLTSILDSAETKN
structure (smiles),measurement,setting,value
NC(CC(O)c1cccc(O)c1)C(=O)O (configuration not stated),Ki,Kynureninase [1],130 nM
same,Ki,Kynureninase [2],100 nM
